Measured values reported in patent US4450269A, “Mono-5-substituted-3-chloro-4H-1,2,6-thiadiazin-4-one antifungal agents” (FMC Corporation, priority 1980, dated 1984).
Counter-ions that a name gives are not always drawn.

What was measured:
Test in all cases: Spore germination test
Assay type in all cases: cell-based
[1] = test system: Uromyces phaseoli; details: UP, 48 hours
Outline: (§1)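 Compound in acetone was mixed into water agar at final 40, 10, 2.5 and 1 ppm and poured into quadrant dishes. Quadrants received spore suspension, while Erysiphe polygoni and Uromyces phaseoli spores were brushed on from infected leaves. After 48 h at 24 °C, the percentage of germinated spores was converted to a germination rating.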

[2] = test system: Botrytis cinerea; details: BC, 48 hours
Outline: as §1

[3] = test system: Erysiphe polygoni; details: EP, 48 hours
Outline: as §1

Row | Molecule | Spore Germination Rating ([1]; 1.0 ppm) | Spore Germination Rating ([1]; 2.5 ppm) | Spore Germination Rating ([1]; 10 ppm) | Spore Germination Rating ([1]; 40 ppm) | Spore Germination Rating ([2]; 1.0 ppm) | Spore Germination Rating ([2]; 2.5 ppm) | Spore Germination Rating ([2]; 10 ppm) | Spore Germination Rating ([2]; 40 ppm) | Spore Germination Rating ([3]; 1.0 ppm) | Spore Germination Rating ([3]; 2.5 ppm) | Spore Germination Rating ([3]; 10 ppm) | Spore Germination Rating ([3]; 40 ppm) | Spore Germination Rating ([1]; 1.0 ppm, hydrochloride) | Spore Germination Rating ([1]; 2.5 ppm, hydrochloride) | Spore Germination Rating ([1]; 10 ppm, hydrochloride) | Spore Germination Rating ([1]; 40 ppm, hydrochloride) | Spore Germination Rating ([2]; 1.0 ppm, hydrochloride)
1 | 3-chloro-5-(bromophenoxy)-4H-1,2,6-thiadiazin-4-one [Compound 33] | 0 (0-10) | 0 (0-10) | 0 (0-10) | 0 (0-10) | 4 (80-100) | 3 (60-80) | 0 (0-10) | 0 (0-10) | 0 (0-10) | 0 (0-10) | 0 (0-10) | 0 (0-10) |  |  |  |  | 
2 | COc1cc(Oc2nsnc(Cl)c2=O)cc(OC)c1C(C)=O [Compound 61, 3-[(4-acetyl-3,5-dimethoxy)-phenoxy]-5-chloro-4H--1,2,6-thiadiazin-4-one] | 2 (40-60) | 1 (10-40) | 2 (40-60) | 0 (0-10) | 4 (80-100) | 4 (80-100) | 3 (60-80) | 2 (40-60) | 1 (10-40) | 1 (10-40) | 1 (10-40) | 0 (0-10) |  |  |  |  | 
3 | Cc1ccccc1Oc1nsnc(Cl)c1=O [Compound 22, 3-chloro-5-(2-methylphenoxy)-4H--1,2,6-thiadiazin-4-one] | 4 (80-100) | 2 (40-60) | 1 (10-40) | 0 (0-10) | 2 (40-60) | 0 (0-10) | 0 (0-10) | 0 (0-10) | 4 (80-100) | 4 (80-100) | 3 (60-80) | 1 (10-40) |  |  |  |  | 
4 | O=c1c(Cl)nsnc1Oc1cc(Cl)cc(Cl)c1 [Compound 20, 3-chloro-5-(3,5-dichlorophenoxy)-4H--1,2,6-thiadiazin-4-one] | 0 (0-10) | 0 (0-10) | 0 (0-10) | 0 (0-10) | 4 (80-100) | 0 (0-10) | 0 (0-10) | 0 (0-10) | 3 (60-80) | 0 (0-10) | 0 (0-10) | 0 (0-10) |  |  |  |  | 
5 | O=c1c(Cl)nsnc1Oc1ccccc1Cl [Compound 14, 3-chloro-5-(2-chlorophenoxy)-4H--1,2,6-thiadiazin-4-one] | 0 (0-10) | 0 (0-10) | 0 (0-10) | 0 (0-10) | 3 (60-80) | 0 (0-10) | 0 (0-10) | 0 (0-10) | 4 (80-100) | 4 (80-100) | 2 (40-60) | 0 (0-10) |  |  |  |  | 
6 | Nc1ccc(Oc2nsnc(Cl)c2=O)cc1 [Compound 27, 5-(4-aminophenoxy)-3-chloro-4H--1,2,6-thiadiazine-4-one hydrochloride] |  |  |  |  |  |  |  |  |  |  |  |  | 4 (80-100) | 1 (10-40) | 1 (10-40) | 0 (0-10) | 1 (10-40)
7 | O=c1c(Cl)nsnc1Oc1ccccc1 [Compound 2, 3-chloro-5-phenoxy-4H--1,2,6-thiadiazin-4-one] | 2 (40-60) | 2 (40-60) | 0 (0-10) | 0 (0-10) | 4 (80-100) | 4 (80-100) | 0 (0-10) | 0 (0-10) | 4 (80-100) | 4 (80-100) | 3 (60-80) | 1 (10-40) |  |  |  |  | 
8 | Cc1cc(Cl)c(Oc2nsnc(Cl)c2=O)cc1C [Compound 58, 3-chloro-5-[(2-chloro-4,5-dimethyl)phenoxy]-4H--1,2,6-thiadiazin-4-one] | 2 (40-60) | 0 (0-10) | 0 (0-10) | 0 (0-10) | 3 (60-80) | 0 (0-10) | 0 (0-10) | 0 (0-10) | 4 (80-100) | 0 (0-10) | 0 (0-10) | 0 (0-10) |  |  |  |  | 
9 | CC(=O)Nc1cccc(Oc2nsnc(Cl)c2=O)c1 [Compound 42, 3-[(3-N--acetylamino)-phenoxy]-5-chloro-4H--1,2,6-thiadiazin-4-one] | 4 (80-100) | 3 (60-80) | 1 (10-40) | 0 (0-10) | 4 (80-100) | 4 (80-100) | 4 (80-100) | 1 (10-40) | 4 (80-100) | 4 (80-100) | 4 (80-100) | 4 (80-100) |  |  |  |  | 
